Source: patent US4461900A, “4,5-Dihydrothiadiazole 1,1-dioxide derivatives” (American Home Products Corporation, priority 1983, dated 1984)

How the values were obtained:
[1] = system: histamine induced gastric acid secretion; settings: dog; cited from earlier work
H2 receptor = settings: cited from earlier work
H2 -receptor = biological target: T1, H2 -receptor (Cavia porcellus, UniProt P47747); assay: In vitro H2 antagonism: histamine-induced heart rate increase in isolated guinea-pig right atria; format: cell-based; settings: at 10^-4, 10^-5 M
T1 construct: The right atria of Males Charles River guinea-pigs; from tissue; host or cells: isolated right atria of male Charles River guinea-pigs
T1 sequence (P47747 whole entry): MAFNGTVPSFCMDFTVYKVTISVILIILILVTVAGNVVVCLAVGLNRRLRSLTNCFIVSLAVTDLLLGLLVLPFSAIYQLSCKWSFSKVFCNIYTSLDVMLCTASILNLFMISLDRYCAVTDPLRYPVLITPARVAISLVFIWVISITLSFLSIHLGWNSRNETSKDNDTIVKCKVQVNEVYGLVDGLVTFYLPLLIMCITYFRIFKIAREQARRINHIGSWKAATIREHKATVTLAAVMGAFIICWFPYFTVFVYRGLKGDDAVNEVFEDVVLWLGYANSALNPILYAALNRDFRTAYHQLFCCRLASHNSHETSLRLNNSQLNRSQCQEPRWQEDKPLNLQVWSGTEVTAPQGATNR
Method: The right atria of Males Charles River guinea-pigs (250-325 gm), trimmed of extraneous tissues is suspended in a bath at a 1.0 g tension load between an anchor and a Grass Model FT03 force displacement transducer which is coupled to a Beckman Dynograph recorder. The Krebs-Henseleit bath is oxygenated (95% O2 -5% CO2) and maintained at 32° C. After establishing a regular pattern of spontaneous activity over one hour, cumulative doses of histamine are introduced into the bath and the maximal heart rate increase recorded after each addition to establish a response control.
Then the tissue is washed, returned to rest rates and the compound being treated is introduced into the bath. Thirty minutes later the histamine dose-response study is repeated. The response to histamine in the presence of an antagonist differs from that obtained in the absence of antagonist and the log of the ratio of differences is platted against the log concentration of antagonist for each of several concentrations from which the apparent dissociation constant (pA2) is calculated.

CNC(=C[N+](=O)[O-])NCCSCc1ccc(CN(C)C)o1 [Ranitidine]
Potency relative to cimetidine in blocking histamine induced gastric acid secretion [1]: about 5 times

C#CCNC(=NC#N)NCCSCc1nc[nH]c1C [Etintidine]
Potency as H2 -receptor antagonist relative to cimetidine (H2 receptor): more potent than cimetidine

CN(C)Cc1ccc(CSCCNC2=NS(=O)(=O)CN2)o1 [Example 1, N-[2-[[[5-[(DIMETHYLAMINO)METHYL]-2-FURANYL]METHYL]THIO]ETHYL]-4,5-DIHYDRO- 1,2,4-THIADIAZOL-3-AMINE 1,1-DIOXIDE]
H2 antagonism (activity at stated concentrations) (H2 -receptor): active

CNC(=NC#N)NCCSCc1csc(N=C(N)N)n1 [Tiotidine]
Potency relative to cimetidine in H2 receptor antagonism (H2 receptor; both in vitro and in vivo studies): at least ten
